biological target: T1, PRMT5/MEP50 (Homo sapiens, UniProt O14744); experiment: PRMT5 Biochemical Assay (PRMT5/MEP50 enzyme assay on peptide substrate, 3H-SAM Flashplate)
T1 construct: Flag-PRMT5; 6His-MEP50
Source text: General Materials. S-adenosylmethionine (SAM), S-adenosylhomocysteine (SAH), bicine, KCl, Tween20, dimethylsulfoxide (DMSO), bovine skin gelatin (BSG), and Tris(2-carboxyethyl)phosphine hydrochloride solution (TCEP) were purchased from Sigma-Aldrich at the highest level of purity possible. ^3H-SAM was purchase from American Radiolabeled Chemicals with a specific activity of 80 Ci/mmol. 384-well streptavidin Flashplates were purchased from PerkinElmer.
Substrates. Peptide representative of human histone H4 residues 1-15 was synthesized with a C-terminal linker-affinity tag motif and a C-terminal amide cap by 21st Century Biochemicals. The peptide was high high-perfomance liquid chromatography (HPLC) purified to greater than 95% purity and confirmed by liquid chromatography mass spectrometry (LC-MS). The sequence was Ac-[…][K-Biot]-amide (SEQ ID NO.:3).
Molecular Biology: Full-length human PRMT5 (NM_006109.3) transcript variant 1 clone was amplified from a fetal brain cDNA library, incorporating flanking 5′ sequence encoding a FLAG tag ([…]) (SEQ ID NO.:4) fused directly to Ala 2 of PRMT5. Full-length human MEP50 (NM_024102) clone was amplified from a human testis cDNA library incorporating a 5′ sequence encoding a 6-histidine tag (MHHHHHH) (SEQ ID NO.:5) fused directly to Arg 2 of MEP50. The amplified genes were sublconed into pENTR/D/TEV (Life Technologies) and subsequently transferred by Gateway™ attL×attR recombination to pDEST8 baculvirus expression vector (Life Technologies).
Protein Expression. Recombinant baculovirus and Baculovirus-Infected Insect Cells (BIIC) were generated according to Bac-to-Bac kit instructions (Life Technologies) and Wasilko, 2006, respectively. Protein over-expression was accomplished by infecting exponentially growing Spodoptera frugiperda (SF9) cell culture at 1.2×10^6cell/ml with a 5000 fold dilution of BIIC stock. Infections were carried out at 27° C. for 72 hours, harvested by centrifugation, and stored at −80° C. for purification.
Protein Purification. […] Flag-PRMT5/6His-MeP50 was eluted with 300 mM Imidazole in the same buffer. The purity of recovered protein was 87%. Reference: Wasilko, D. J. and S. E. Lee: “TIPS: titerless infected-cells preservation and scale-up” Bioprocess J., 5 (2006), pp. 29-32.
General Procedure for PRMT5/MEP50 Enzyme Assays on Peptide Substrates. The assays were all performed in a buffer consisting of 20 mM Bicine (pH=7.6), 1 mM TCEP, 0.005% BSG, and 0.002% Tween20, prepared on the day of use. Compounds in 100% DMSO (1 ul) were spotted into a polypropylene 384-well V-bottom plates (Greiner) using a Platemate Plus outfitted with a 384-channel head (Thermo Scientific). DMSO (1 ul) was added to Columns 11, 12, 23, 24, rows A-H for the maximum signal control and 1 ul of SAH, a known product and inhibitor of PRMT5/MEP50, was added to columns 11, 12, 23, 24, rows I-P for the minimum signal control. A cocktail (40 ul) containing the PRMT5/MEP50 enzyme and the peptide was added by Multidrop Combi (Thermo-Fisher). The compounds were allowed to incubate with PRMT5/MEP50 for 30 min at 25 degrees Celsius, then a cocktail (10 ul) containing ^3H-SAM was added to initiate the reaction (final volume=51 ul). The final concentrations of the components were as follows: PRMT5/MEP50 was 4 nM, ^3H-SAM was 75 nM, peptide was 40 nM, SAH in the minimum signal control wells was 100 uM, and the DMSO concentration was […]. The assays were stopped by the addition of non-radioactive SAM (10 ul) to a final concentration of 600 uM, which dilutes the ^3H-SAM to a level where its incorporation into the peptide substrate is no longer detectable. 50 ul of the reaction in the 384-well polypropylene plate was then transferred to a 384-well Flashplate and the biotinylated peptides were allowed to bind to the streptavidin surface for at least 1 hour before being washed three times with 0.1% Tween20 in a Biotek ELx405 plate washer. […]

T1 sequence (O14744 with tags, fused parts or gaps): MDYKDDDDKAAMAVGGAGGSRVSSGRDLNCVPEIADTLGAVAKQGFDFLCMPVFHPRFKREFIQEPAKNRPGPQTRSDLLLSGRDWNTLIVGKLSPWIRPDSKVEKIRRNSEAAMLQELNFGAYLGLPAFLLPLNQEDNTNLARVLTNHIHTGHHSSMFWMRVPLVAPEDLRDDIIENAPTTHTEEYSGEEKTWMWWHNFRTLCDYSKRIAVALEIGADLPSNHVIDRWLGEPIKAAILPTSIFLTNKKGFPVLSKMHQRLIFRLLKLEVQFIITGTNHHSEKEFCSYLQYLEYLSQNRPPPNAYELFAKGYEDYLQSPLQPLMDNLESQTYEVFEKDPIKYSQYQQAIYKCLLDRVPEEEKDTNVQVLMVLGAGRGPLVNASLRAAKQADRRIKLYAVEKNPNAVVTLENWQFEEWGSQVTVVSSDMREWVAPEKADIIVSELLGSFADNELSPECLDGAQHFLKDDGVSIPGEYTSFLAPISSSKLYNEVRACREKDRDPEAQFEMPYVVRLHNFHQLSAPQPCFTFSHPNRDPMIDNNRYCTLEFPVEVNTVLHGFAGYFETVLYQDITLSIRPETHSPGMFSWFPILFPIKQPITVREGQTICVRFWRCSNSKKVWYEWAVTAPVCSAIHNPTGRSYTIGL
T1 sequence (Q9BQA1 with tags, fused parts or gaps partner): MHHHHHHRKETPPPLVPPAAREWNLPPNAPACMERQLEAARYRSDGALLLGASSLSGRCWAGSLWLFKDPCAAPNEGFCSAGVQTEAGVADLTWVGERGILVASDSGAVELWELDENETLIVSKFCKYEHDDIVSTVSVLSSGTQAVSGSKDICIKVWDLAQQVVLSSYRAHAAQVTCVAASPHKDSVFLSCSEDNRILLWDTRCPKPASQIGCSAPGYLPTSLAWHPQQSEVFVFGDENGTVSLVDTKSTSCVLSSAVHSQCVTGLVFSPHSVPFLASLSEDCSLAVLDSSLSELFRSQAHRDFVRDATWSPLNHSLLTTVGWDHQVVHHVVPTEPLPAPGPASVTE

Row | Compound | IC50
1 | COc1cccc(-c2cccc(OCC(O)CN3CCc4ccccc4C3)c2)c1 (stereo not drawn) [Compound 74] | 0.101 to 1 µM
2 | COc1ccc(-c2cccc(OCC(O)CN3CCc4ccccc4C3)c2)cc1 (stereo not drawn) [Compound 75, 1-(3,4-dihydroisoquinolin-2(1H)-yl)-3-((4′-methoxy-[1,1′-biphenyl]-3-yl)oxy)propan-2-ol] | 0.101 to 1 µM
3 | OC(COc1cccc(-c2cncc(F)c2)c1)CN1CCc2ccccc2C1 (stereo not drawn) [Compound 76] | 1 to 10 µM
4 | OC(COc1cccc(-c2ccc(F)cc2)c1)CN1CCc2ccccc2C1 (stereo not drawn) [Compound 77] | 1 to 10 µM
5 | Cc1ccc(-c2cccc(OCC(O)CN3CCc4ccccc4C3)c2)cn1 (stereo not drawn) [Compound 78] | 1 to 10 µM
6 | O=C(NC1CCOCC1)c1cccc(NCC(O)CN2CCc3ccccc3C2)c1 (stereo not drawn) [Compound 79] | 10 to 40 µM
7 | CC1c2ccccc2CCN1CC(O)COc1cccc(-c2ccc3ncn(C)c3c2)c1 (stereo not drawn) [Compound 80] | 0.101 to 1 µM
8 | CC(C)n1cnc2ccc(-c3cccc(OCC(O)CN4CCc5ccccc5C4)c3)cc21 (stereo not drawn) [Compound 81] | 0.101 to 1 µM
9 | COc1ccc(Cn2cnc3ccc(-c4cccc(OCC(O)CN5CCc6ccccc6C5)c4)cc32)cc1 (stereo not drawn) [Compound 82, 1-(3,4-dihydroisoquinolin-2(1H)-yl)-3-(3-(1-(4-methoxybenzyl)-1H-benzo[d]imidazol-6-yl)phenoxy)propan-2-ol] | 0.101 to 1 µM
10 | OC(COc1cccc(-c2ccc3nc[nH]c3c2)c1)CN1CCc2ccccc2C1 (stereo not drawn) [Compound 83] | 0.101 to 1 µM
11 | OC(COc1cccc(-c2ccc3c(c2)OCCO3)c1)CN1CCc2ccccc2C1 (stereo not drawn) [Compound 85, 1-(3-(2,3-dihydrobenzo[b][1,4]dioxin-6-yl)phenoxy)-3-(3,4-dihydroisoquinolin-2(1H)-yl)propan-2-ol] | 0.101 to 1 µM
12 | OC(COc1cccc(-c2cccc3c2oc2ccccc23)c1)CN1CCc2ccccc2C1 (stereo not drawn) [Compound 86, 1-(3-(dibenzo[b,d]furan-4-yl)phenoxy)-3-(3,4-dihydroisoquinolin-2(1H)-yl)propan-2-ol] | 0.101 to 1 µM
13 | OC(COc1cccc(-c2cccc(C(F)(F)F)c2)c1)CN1CCc2ccccc2C1 (stereo not drawn) [Compound 87] | 1 to 10 µM
14 | COc1ccc(-c2cccc(OCC(O)CN3CCc4ccccc4C3)c2)c(Cl)c1 (stereo not drawn) [Compound 88] | 0.101 to 1 µM
15 | OC(COc1cccc(-c2cnc3ccccc3c2)c1)CN1CCc2ccccc2C1 (stereo not drawn) [Compound 89, 1-(3,4-dihydroisoquinolin-2(1H)-yl)-3-(3-(quinolin-3-yl)phenoxy)propan-2-ol] | 0.101 to 1 µM
16 | COc1ccc(-c2cccc(OCC(O)CN3CCc4ccccc4C3)c2)c(C)c1 (stereo not drawn) [Compound 90] | 0.101 to 1 µM
17 | OC(COc1cccc(-c2cccc(Cl)c2)c1)CN1CCc2ccccc2C1 (stereo not drawn) [Compound 91] | 1 to 10 µM
18 | OC(COc1cccc(-c2ccccc2Cl)c1)CN1CCc2ccccc2C1 (stereo not drawn) [Compound 92] | 0.101 to 1 µM
19 | N#Cc1ccccc1-c1cccc(OCC(O)CN2CCc3ccccc3C2)c1 (stereo not drawn) [Compound 93] | 0.101 to 1 µM
20 | N#Cc1ccc(-c2cccc(OCC(O)CN3CCc4ccccc4C3)c2)cc1 (stereo not drawn) [Compound 94] | 0.101 to 1 µM
21 | Oc1cccc(-c2cccc(OCC(O)CN3CCc4ccccc4C3)c2)c1 (stereo not drawn) [Compound 95] | 0.101 to 1 µM
22 | Oc1ccc(-c2cccc(OCC(O)CN3CCc4ccccc4C3)c2)cc1 (stereo not drawn) [Compound 96] | 1 to 10 µM
23 | OC(COc1cccc(-c2ccncc2)c1)CN1CCc2ccccc2C1 (stereo not drawn) [Compound 97] | 1 to 10 µM

Row | Compound | IC50
24 | OC(COc1cccc(-c2ccccn2)c1)CN1CCc2ccccc2C1 (stereo not drawn) [Compound 98] | 1 to 10 µM
25 | CN(CC(O)CN1CCc2ccccc2C1)c1cccc(C(=O)NC2CCOCC2)c1 (stereo not drawn) [Compound 99] | 10 to 40 µM
26 | COc1cccc2c1CN(CC(O)COc1cccc(-c3ccc4ncn(C)c4c3)c1)CC2 (stereo not drawn) [Compound 100] | 1 to 10 µM
27 | CC1CN(CC(O)COc2cccc(-c3ccc4ncn(C)c4c3)c2)Cc2ccccc21 (stereo not drawn) [Compound 101] | 1 to 10 µM
28 | OC(COc1cccc(-c2ccc3ncn(C4CCOCC4)c3c2)c1)CN1CCc2ccccc2C1 (stereo not drawn) [Compound 103, 1-(3,4-dihydroisoquinolin-2(1H)-yl)-3-(3-(1-(tetrahydro-2H-pyran-4-yl)-1H-benzo[d]imidazol-6-yl)phenoxy)propan-2-ol] | 0.101 to 1 µM
29 | OC(COc1cccc(-c2ccc3ncn(-c4ccccc4)c3c2)c1)CN1CCc2ccccc2C1 (stereo not drawn) [Compound 104, 1-(3,4-dihydroisoquinolin-2(1H)-yl)-3-(3-(1-phenyl-1H-benzo[d]imidazol-6-yl)phenoxy)propan-2-ol] | 0.101 to 1 µM
30 | OC(COc1cccc(-c2ccc3[nH]ncc3c2)c1)CN1CCc2ccccc2C1 (stereo not drawn) [Compound 107] | 0.101 to 1 µM
31 | O=c1[nH]c2ccc(-c3cccc(OCC(O)CN4CCc5ccccc5C4)c3)cc2[nH]1 (stereo not drawn) [Compound 109, 5-(3-(3-(3,4-dihydroisoquinolin-2(1H)-yl)-2-hydroxypropoxy)phenyl)-1H-benzo[d]imidazol-2(3H)-one] | 0.101 to 1 µM
32 | COc1cc(Cl)cc(-c2cccc(OCC(O)CN3CCc4ccccc4C3)c2)c1 (stereo not drawn) [Compound 110] | 0.101 to 1 µM
33 | N#CCc1cccc(-c2cccc(OCC(O)CN3CCc4ccccc4C3)c2)c1 (stereo not drawn) [Compound 111] | 0.101 to 1 µM
34 | Cc1ccncc1-c1cccc(OCC(O)CN2CCc3ccccc3C2)c1 (stereo not drawn) [Compound 113, 1-(3,4-dihydroisoquinolin-2(1H)-yl)-3-(3-(4-methylpyridin-3-yl)phenoxy)propan-2-ol] | 0.101 to 1 µM
35 | Cn1cc2ccc(-c3cccc(OCC(O)CN4CCc5ccccc5C4)c3)cc2n1 (stereo not drawn) [Compound 114] | 0.101 to 1 µM
36 | Cn1cc2cc(-c3cccc(OCC(O)CN4CCc5ccccc5C4)c3)ccc2n1 (stereo not drawn) [Compound 115] | 1 to 10 µM
37 | Cn1cnc2ccc(-c3cccc(NCC(O)CN4CCc5ccccc5C4)n3)cc21 (stereo not drawn) [Compound 117, 1-(3,4-Dihydroisoquinolin-2(1H)-yl)-3-((6-(1-methyl-1H-benzo[d]imidazol-6-yl)pyridin-2-yl)amino)propan-2-ol] | 0.101 to 1 µM
38 | Cn1cnc2ccc(-c3ccnc(NCC(O)CN4CCc5ccccc5C4)n3)cc21 (stereo not drawn) [Compound 119] | 0.101 to 1 µM
39 | Cn1cnc2ccc(-c3nccc(NCC(O)CN4CCc5ccccc5C4)n3)cc21 (stereo not drawn) [Compound 120, 1-(3,4-dihydroisoquinolin-2(1H)-yl)-3-((2-(1-methyl-1H-benzo[d]imidazol-6-yl)pyrimidin-4-yl)amino)propan-2-ol] | 1 to 10 µM
40 | Cn1cnc2ccc(-c3cncc(NCC(O)CN4CCc5ccccc5C4)n3)cc21 (stereo not drawn) [Compound 121, 1-(3,4-dihydroisoquinolin-2(1H)-yl)-3-((6-(1-methyl-1H-benzo[d]imidazol-6-yl)pyrazin-2-yl)amino)propan-2-ol] | 0.101 to 1 µM
41 | CC1Cc2ccccc2CN1CC(O)COc1cccc(-c2ccc3ncn(C)c3c2)c1 (stereo not drawn) [Compound 122] | 1 to 10 µM
42 | OC(COc1cccc(-c2ccc(C(F)(F)F)cc2C(F)(F)F)c1)CN1CCc2ccccc2C1 (stereo not drawn) [Compound 124] | 0.101 to 1 µM
43 | CN(C)c1ncc(-c2cccc(OCC(O)CN3CCc4ccccc4C3)c2)cn1 (stereo not drawn) [Compound 125, 1-(3,4-dihydroisoquinolin-2(1H)-yl)-3-(3-(2-(dimethylamino)pyrimidin-5-yl)phenoxy)propan-2-ol] | 0.101 to 1 µM
44 | O=C(c1cccc(-c2cccc(OCC(O)CN3CCc4ccccc4C3)c2)c1)N1CCOCC1 (stereo not drawn) [Compound 126, (3′-(3-(3,4-dihydroisoquinolin-2(1H)-yl)-2-hydroxypropoxy)-[1,1′-biphenyl]-3-yl)(morpholino)methanone] | 0.101 to 1 µM
45 | OC(COc1cccc(-c2ccc(C(F)(F)F)cc2Cl)c1)CN1CCc2ccccc2C1 (stereo not drawn) [Compound 127] | 0.101 to 1 µM

Reference: patent US20180298010A1, “PRMT5 INHIBITORS AND USES THEREOF” (Epizyme, Inc., priority 2012, published 2018)
